The values that follow come from ChEMBL document CHEMBL6127119 (J Med Chem, 2024).

Each structure is given as a SMILES string. In brackets after ≈: the same amount, converted by molar mass.

Format in all cases: functional
Conditions in all cases: time 16-24 hrs

In assay [1] the test system is Staphylococcus aureus. The assay is described as follows: Antibacterial activity against methicillin-susceptible Staphylococcus aureus incubated for 16 to 24 hrs by CLSI based broth microdilution method.
Assay [2] relates to Staphylococcus aureus. Kind of assay: Antibacterial activity against vancomycin-intermediate Staphylococcus aureus incubated for 16 to 24 hrs by CLSI based broth microdilution method. In general terms: Broth dilution looks for growth in wells or tubes with falling amounts of substance.
The subject of assay [3] is Enterococcus faecium. The assay is described as follows: Antibacterial activity against vancomycin-resistant Enterococcus faecium harboring VanA phenotype incubated for 16 to 24 hrs by CLSI based broth microdilution method.
Assay [4] relates to Enterococcus faecium. The assay is described as follows: Antibacterial activity against vancomycin-resistant Enterococcus faecium harboring VanM phenotype incubated for 16 to 24 hrs by CLSI based broth microdilution method.
Assay [5] has as its system Enterococcus faecium. Kind of assay: Antibacterial activity against vancomycin-resistant Enterococcus faecium harboring VanB phenotype incubated for 16 to 24 hrs by CLSI based broth microdilution method.
Assay [6] relates to Escherichia coli. Kind of assay: Antibacterial activity against Escherichia coli AB1157 incubated for 16 to 24 hrs by CLSI based broth microdilution method.
The subject of assay [7] is Acinetobacter baumannii. Kind of assay: Antibacterial activity against Carbapenem-resistant Acinetobacter baumannii clinical isolate incubated for 16 to 24 hrs by CLSI based broth microdilution method.
Assay [8] deals with Klebsiella pneumoniae. Kind of assay: Antibacterial activity against Klebsiella pneumoniae clinical isolate incubated for 16 to 24 hrs by CLSI based broth microdilution method.
For assay [9], the system named is Pseudomonas aeruginosa. The assay is described as follows: Antibacterial activity against Pseudomonas aeruginosa PAO1 incubated for 16 to 24 hrs by CLSI based broth microdilution method.

The MIC is the least concentration at which growth counts as inhibited. The low end stands for a more susceptible organism, the high end for a less susceptible organism. `CN[C@H](CC(C)C)C(=O)N[C@H]1C(=O)N[C@@H](CC(N)=O)C(=O)N[C@H]2C(=O)N[C@H]3C(=O)N[C@H](C(=O)N[C@H](C(=O)O)c4cc(O)c(CNCCCCCCCCNC(=N)N)c(O)c4-c4cc3ccc4O)[C@H](O)c3ccc(c(Cl)c3)Oc3cc2cc(c3O[C@@H]2O[C@H](CO)[C@@H](O)[C@H](O)[C@H]2O[C@H]2C[C@](C)(N)[C@H](O)[C@H](C)O2)Oc2ccc(cc2Cl)[C@H]1O`: the MIC in assay [1] came to 1 µg/mL (≈ 0.607 µM); in [2], 2 µg/mL (≈ 1.21 µM); in assay [3], 64 µg/mL (≈ 38.8 µM); in assay [4] it was 32 µg/mL (≈ 19.4 µM); in [5], 128 µg/mL (≈ 77.7 µM); in [6] it was 32 µg/mL (≈ 19.4 µM). The MIC is 128 µg/mL (≈ 77.7 µM) in assay [7], above 128 µg/mL in assay [8] and 128 µg/mL (≈ 77.7 µM) in assay [9].
Take `CN[C@H](CC(C)C)C(=O)N[C@H]1C(=O)N[C@@H](CC(N)=O)C(=O)N[C@H]2C(=O)N[C@H]3C(=O)N[C@H](C(=O)N[C@H](C(=O)N[C@H](CCCNC(=N)N)C(N)=O)c4cc(O)cc(O)c4-c4cc3ccc4O)[C@H](O)c3ccc(c(Cl)c3)Oc3cc2cc(c3O[C@@H]2O[C@H](CO)[C@@H](O)[C@H](O)[C@H]2O[C@H]2C[C@](C)(N)[C@H](O)[C@H](C)O2)Oc2ccc(cc2Cl)[C@H]1O`: the minimal inhibitory concentration (MIC) came to 0.5 µg/mL (≈ 0.312 µM) in assay [1]; 1 µg/mL (≈ 0.623 µM) in [2]; 8 µg/mL (≈ 4.99 µM) in [3]; 32 µg/mL (≈ 19.9 µM) in assay [4]; 16 µg/mL (≈ 9.97 µM) in assay [5]; 8 µg/mL (≈ 4.99 µM) in assay [6]. Besides, the minimal inhibitory concentration (MIC) was 32 µg/mL (≈ 19.9 µM) in assay [7], 128 µg/mL (≈ 79.8 µM) in assay [8] and above 128 µg/mL in assay [9].
For `CC(C)C[C@@H](N)C(=O)N[C@H]1C(=O)N[C@@H](CC(N)=O)C(=O)N[C@H]2C(=O)N[C@H]3C(=O)N[C@H](C(=O)N[C@H](C(=O)NCc4ccc(-c5cccc(CN)c5)cc4)c4cc(O)cc(O)c4-c4cc3ccc4O)[C@H](O)c3ccc(c(Cl)c3)Oc3cc2cc(c3O[C@@H]2O[C@H](CO)[C@@H](O)[C@H](O)[C@H]2O[C@H]2C[C@](C)(N)[C@H](O)[C@H](C)O2)Oc2ccc(cc2Cl)[C@H]1O`, the MIC was found to be 0.125 µg/mL (≈ 0.0767 µM) in assay [1]; 0.5 µg/mL (≈ 0.307 µM) in assay [2]; 8 µg/mL (≈ 4.91 µM) in [3]; 2 µg/mL (≈ 1.23 µM) in assay [4]; 8 µg/mL (≈ 4.91 µM) in [5]; 16 µg/mL (≈ 9.82 µM) in assay [6]. The minimal inhibitory concentration (MIC) in assay [7] was above 128 µg/mL; in assay [8], above 128 µg/mL; in assay [9], 128 µg/mL (≈ 78.6 µM).
For `CC(C)C[C@@H](N)C(=O)N[C@H]1C(=O)N[C@@H](CC(N)=O)C(=O)N[C@H]2C(=O)N[C@H]3C(=O)N[C@H](C(=O)N[C@H](C(=O)NCCCCCCNC(=N)N)c4cc(O)cc(O)c4-c4cc3ccc4O)[C@H](O)c3ccc(c(Cl)c3)Oc3cc2cc(c3O[C@@H]2O[C@H](CO)[C@@H](O)[C@H](O)[C@H]2O[C@H]2C[C@](C)(N)[C@H](O)[C@H](C)O2)Oc2ccc(cc2Cl)[C@H]1O`, the MIC is 0.5 µg/mL (≈ 0.317 µM) in assay [1]; 2 µg/mL (≈ 1.27 µM) in [2]; 32 µg/mL (≈ 20.3 µM) in assay [3]; 32 µg/mL (≈ 20.3 µM) in [4]; 16 µg/mL (≈ 10.2 µM) in [5]; 8 µg/mL (≈ 5.08 µM) in [6]. In addition, the results for the MIC in assay [7], in [8] and in assay [9] were 128 µg/mL (≈ 81.2 µM), above 128 µg/mL and above 128 µg/mL, respectively.
For the compound `CC(C)C[C@@H](N)C(=O)N[C@H]1C(=O)N[C@@H](CC(N)=O)C(=O)N[C@H]2C(=O)N[C@H]3C(=O)N[C@H](C(=O)N[C@H](C(=O)NCc4ccc(-c5ccccc5CN)cc4)c4cc(O)cc(O)c4-c4cc3ccc4O)[C@H](O)c3ccc(c(Cl)c3)Oc3cc2cc(c3O[C@@H]2O[C@H](CO)[C@@H](O)[C@H](O)[C@H]2O[C@H]2C[C@](C)(N)[C@H](O)[C@H](C)O2)Oc2ccc(cc2Cl)[C@H]1O`, the minimum inhibitory concentration (MIC) in assay [1] is 0.25 µg/mL (≈ 0.153 µM); in assay [2], 0.5 µg/mL (≈ 0.307 µM); in assay [3], 8 µg/mL (≈ 4.91 µM); in [4] it was 4 µg/mL (≈ 2.45 µM); in [5] it was 4 µg/mL (≈ 2.45 µM); in [6] it was 8 µg/mL (≈ 4.91 µM). For the same compound, the MIC in [7] is 16 µg/mL (≈ 9.82 µM); in assay [8], above 128 µg/mL; in [9] it was 32 µg/mL (≈ 19.6 µM).
With `CC(C)C[C@@H](N)C(=O)N[C@H]1C(=O)N[C@@H](CC(N)=O)C(=O)N[C@H]2C(=O)N[C@H]3C(=O)N[C@H](C(=O)N[C@H](C(=O)NCCCCCCCCNC(=N)N)c4cc(O)cc(O)c4-c4cc3ccc4O)[C@H](O)c3ccc(c(Cl)c3)Oc3cc2cc(c3O[C@@H]2O[C@H](CO)[C@@H](O)[C@H](O)[C@H]2O[C@H]2C[C@](C)(N)[C@H](O)[C@H](C)O2)Oc2ccc(cc2Cl)[C@H]1O`, the MIC in [1] was determined as 0.5 µg/mL (≈ 0.312 µM); in assay [2] it was 2 µg/mL (≈ 1.25 µM); in assay [3], 16 µg/mL (≈ 9.98 µM); in assay [4], 32 µg/mL (≈ 20 µM); in assay [5], 8 µg/mL (≈ 4.99 µM); in assay [6], 8 µg/mL (≈ 4.99 µM). Besides, the MIC is 64 µg/mL (≈ 39.9 µM) in assay [7], above 128 µg/mL in assay [8] and 128 µg/mL (≈ 79.8 µM) in assay [9].
On to `CC(C)C[C@@H](N)C(=O)N[C@H]1C(=O)N[C@@H](CC(N)=O)C(=O)N[C@H]2C(=O)N[C@H]3C(=O)N[C@H](C(=O)N[C@H](C(=O)NCCc4ccc(-c5ccc(CN)cc5)cc4)c4cc(O)cc(O)c4-c4cc3ccc4O)[C@H](O)c3ccc(c(Cl)c3)Oc3cc2cc(c3O[C@@H]2O[C@H](CO)[C@@H](O)[C@H](O)[C@H]2O[C@H]2C[C@](C)(N)[C@H](O)[C@H](C)O2)Oc2ccc(cc2Cl)[C@H]1O`, for which the MIC in [1] is 0.25 µg/mL (≈ 0.152 µM); in assay [2] it was 1 µg/mL (≈ 0.608 µM); in assay [3], 4 µg/mL (≈ 2.43 µM); in assay [4], 8 µg/mL (≈ 4.87 µM); in [5], 8 µg/mL (≈ 4.87 µM); in assay [6], 8 µg/mL (≈ 4.87 µM). Further, the minimal inhibitory concentration (MIC) is 128 µg/mL (≈ 77.9 µM) in assay [7], above 128 µg/mL in assay [8] and above 128 µg/mL in assay [9].
Turning to `CC(=O)NCCCCNC(=O)[C@H]1NC(=O)[C@H]2NC(=O)[C@H](NC(=O)[C@@H]3NC(=O)[C@H](CC(N)=O)NC(=O)[C@H](NC(=O)[C@H](N)CC(C)C)[C@H](O)c4ccc(c(Cl)c4)Oc4cc3cc(c4O[C@@H]3O[C@H](CO)[C@@H](O)[C@H](O)[C@H]3O[C@H]3C[C@](C)(N)[C@H](O)[C@H](C)O3)Oc3ccc(cc3Cl)[C@H]2O)c2ccc(O)c(c2)-c2c(O)cc(O)cc21`, the minimum inhibitory concentration (MIC) in assay [1] was 4 µg/mL (≈ 2.58 µM); in assay [2], 8 µg/mL (≈ 5.17 µM); in assay [3], above 128 µg/mL; in assay [4], 128 µg/mL (≈ 82.7 µM); in assay [5], above 128 µg/mL; in assay [6], 128 µg/mL (≈ 82.7 µM). Further, the minimal inhibitory concentration (MIC) was 128 µg/mL (≈ 82.7 µM) in [7], above 128 µg/mL in assay [8] and 128 µg/mL (≈ 82.7 µM) in assay [9].
Take `CC(C)C[C@@H](N)C(=O)N[C@H]1C(=O)N[C@@H](CC(N)=O)C(=O)N[C@H]2C(=O)N[C@H]3C(=O)N[C@H](C(=O)N[C@H](C(=O)NCCCCCCCCN)c4cc(O)cc(O)c4-c4cc3ccc4O)[C@H](O)c3ccc(c(Cl)c3)Oc3cc2cc(c3O[C@@H]2O[C@H](CO)[C@@H](O)[C@H](O)[C@H]2O[C@H]2C[C@](C)(N)[C@H](O)[C@H](C)O2)Oc2ccc(cc2Cl)[C@H]1O`: the MIC worked out at 1 µg/mL (≈ 0.64 µM) in [1]; 4 µg/mL (≈ 2.56 µM) in [2]; 32 µg/mL (≈ 20.5 µM) in [3]; 32 µg/mL (≈ 20.5 µM) in [4]; 32 µg/mL (≈ 20.5 µM) in assay [5]; 32 µg/mL (≈ 20.5 µM) in assay [6]. In addition, the minimal inhibitory concentration (MIC) in assay [7] was above 128 µg/mL; in assay [8], above 128 µg/mL; in [9] it was 128 µg/mL (≈ 82 µM).
